In patent US20080234262A1 (Wyeth, priority 2007, published 2008):

Columns and labels:
PI3K = PI3K (Homo sapiens, UniProt P42336); assay: Fluorescence polarization assay for PI3K; type: biochemical; conditions: PI3Kα; read-out: PI3Kα IC50;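 also: PI3K kinase reaction on PIP2 with ATP, 30-60 min, product sensed by GST-GRP with red probe in fluorescence polarization (mP), controls without enzyme and at zero time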
prostate line LNCap = assay: In vitro cell culture growth assay (MTS), LNCap; type: cell-based, human; conditions: LNCap cells, three days after drug treatment
breast line MDA468 = assay: In vitro cell culture growth assay (MTS), MDA468; type: cell-based, human; conditions: MDA468 cells, three days after drug treatment
How it was run: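 MDA468 or LNCap cells received inhibitors one day after plating and were grown for three days. Viable cell density read by MTS conversion, absorbance 490 nm, expressed as percent of control growth versus vehicle-treated cells on the same plate.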

Sequence of PI3K (P42336 whole entry): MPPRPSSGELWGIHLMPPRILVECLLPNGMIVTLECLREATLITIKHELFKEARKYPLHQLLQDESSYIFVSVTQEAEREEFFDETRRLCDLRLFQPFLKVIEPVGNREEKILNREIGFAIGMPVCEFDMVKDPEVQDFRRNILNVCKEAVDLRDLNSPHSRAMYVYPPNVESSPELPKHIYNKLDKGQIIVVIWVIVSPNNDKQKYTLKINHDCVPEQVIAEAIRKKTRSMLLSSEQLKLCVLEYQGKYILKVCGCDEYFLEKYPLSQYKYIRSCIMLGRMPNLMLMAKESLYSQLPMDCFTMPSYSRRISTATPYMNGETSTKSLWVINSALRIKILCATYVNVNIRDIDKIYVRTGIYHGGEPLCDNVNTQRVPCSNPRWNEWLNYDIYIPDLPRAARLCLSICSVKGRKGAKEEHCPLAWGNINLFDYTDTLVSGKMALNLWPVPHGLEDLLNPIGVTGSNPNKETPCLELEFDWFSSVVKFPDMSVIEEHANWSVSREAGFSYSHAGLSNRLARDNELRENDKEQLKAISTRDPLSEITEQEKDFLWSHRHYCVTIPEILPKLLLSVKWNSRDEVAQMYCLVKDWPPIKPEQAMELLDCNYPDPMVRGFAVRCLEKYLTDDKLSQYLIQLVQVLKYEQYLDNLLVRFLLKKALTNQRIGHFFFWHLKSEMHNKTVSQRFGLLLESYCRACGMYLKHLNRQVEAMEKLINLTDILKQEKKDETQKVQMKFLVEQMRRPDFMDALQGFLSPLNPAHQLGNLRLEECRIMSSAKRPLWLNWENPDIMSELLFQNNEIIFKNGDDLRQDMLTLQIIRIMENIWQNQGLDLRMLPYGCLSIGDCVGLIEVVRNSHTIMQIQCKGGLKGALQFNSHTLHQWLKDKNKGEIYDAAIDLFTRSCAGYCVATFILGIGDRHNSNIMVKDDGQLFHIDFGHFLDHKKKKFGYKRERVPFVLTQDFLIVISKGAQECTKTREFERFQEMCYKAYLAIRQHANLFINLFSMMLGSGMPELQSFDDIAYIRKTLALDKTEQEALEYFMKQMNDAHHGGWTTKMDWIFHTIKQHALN
Sequence of PI3K (P27986 whole entry partner): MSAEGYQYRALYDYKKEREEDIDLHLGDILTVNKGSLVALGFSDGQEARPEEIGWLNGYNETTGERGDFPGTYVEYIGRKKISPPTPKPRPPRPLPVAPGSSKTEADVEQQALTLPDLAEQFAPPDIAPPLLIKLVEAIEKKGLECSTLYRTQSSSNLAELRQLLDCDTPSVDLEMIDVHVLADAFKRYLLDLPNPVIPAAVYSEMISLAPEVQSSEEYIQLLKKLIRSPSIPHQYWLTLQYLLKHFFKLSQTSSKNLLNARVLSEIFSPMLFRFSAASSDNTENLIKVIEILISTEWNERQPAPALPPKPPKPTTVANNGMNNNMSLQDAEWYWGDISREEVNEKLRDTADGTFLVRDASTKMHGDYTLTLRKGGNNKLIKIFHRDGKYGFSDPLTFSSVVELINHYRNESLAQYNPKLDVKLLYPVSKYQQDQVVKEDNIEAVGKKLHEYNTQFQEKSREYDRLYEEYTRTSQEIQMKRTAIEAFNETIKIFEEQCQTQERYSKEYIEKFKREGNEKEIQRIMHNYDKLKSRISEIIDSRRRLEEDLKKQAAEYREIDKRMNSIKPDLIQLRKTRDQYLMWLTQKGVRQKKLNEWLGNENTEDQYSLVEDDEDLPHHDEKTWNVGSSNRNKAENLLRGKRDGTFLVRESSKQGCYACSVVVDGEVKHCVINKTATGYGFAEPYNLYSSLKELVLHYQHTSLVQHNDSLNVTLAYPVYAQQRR

Compound: Nc1ccc(-c2nc(N3CCOCC3)c3cnn(C4CCN(C(=O)c5cccnc5)CC4)c3n2)nc1 [Compound 435, 6-{4-morpholin-4-yl-1-[1-(pyridin-3-ylcarbonyl)piperidin-4-yl]-1H-pyrazolo[3,4-d]pyrimidin-6-yl}pyridin-3-amine]
- IC50 (PI3K): 4040 nM
- IC50 (prostate line LNCap; Homo sapiens, LNCaP, 72 h): 45000 nM
- IC50 (breast line MDA468; Homo sapiens, 72 h): 60000 nM

Compound: CN(C)c1ccc(CC(=O)Nc2ccc(-c3nc(N4CCOCC4)c4cnn(C5CCCCO5)c4n3)cc2)cc1 (stereo not drawn) [Compound 522, 2-[4-(dimethylamino)phenyl]-N-{4-[4-morpholin-4-yl-1-(tetrahydro-2H-pyran-2-yl)-1H-pyrazolo[3,4-d]pyrimidin-6-yl]phenyl}acetamide]
- IC50 (PI3K): 6470 nM
- IC50 (prostate line LNCap; Homo sapiens, LNCaP, 72 h): 11000 nM
- IC50 (breast line MDA468; Homo sapiens, 72 h): > 60000 nM

Compound: CCCCNC(=O)Nc1ccc(-c2nc(N3CCOCC3)c3cnn(C4CCN(C(=O)c5cccnc5)CC4)c3n2)cc1 [Example 216, 1-butyl-3-(4-{4-morpholin-4-yl-1-[1-(pyridin-3-ylcarbonyl)piperidin-4-yl]-1H-pyrazolo[3,4-d]pyrimidin-6-yl}phenyl)urea]
- IC50 (PI3K): 446 nM
- IC50 (prostate line LNCap; Homo sapiens, LNCaP, 72 h): 400 nM
- IC50 (breast line MDA468; Homo sapiens, 72 h): 1500 nM

Compound: CNC(=O)N1CCC(n2ncc3c(N4CCOCC4)nc(-c4ccc(NC(=O)OC)cc4)nc32)CC1 [Compound 813, methyl (4-{1-[1-(methylcarbamoyl)piperidin-4-yl]-4-morpholin-4-yl-1H-pyrazolo[3,4-d]pyrimidin-6-yl}phenyl)carbamate]
- IC50 (PI3K): 1960 nM
- IC50 (prostate line LNCap; Homo sapiens, LNCaP, 72 h): 2250 nM
- IC50 (breast line MDA468; Homo sapiens, 72 h): 4400 nM

Compound: CNC(=O)Nc1ccc(-c2nc(N3CCOCC3)c3cnn(C4CCN(C(=O)N5CCN(C)CC5)CC4)c3n2)cc1 [Example 334, 1-methyl-3-[4-(1-{1-[(4-methylpiperazin-1-yl)carbonyl]piperidin-4-yl}-4-morpholin-4-yl-1H-pyrazolo[3,4-d]pyrimidin-6-yl)phenyl]urea]
- IC50 (PI3K): 71 nM
- IC50 (prostate line LNCap; Homo sapiens, LNCaP, 72 h): 400 nM
- IC50 (breast line MDA468; Homo sapiens, 72 h): 700 nM

Compound: CNC(=O)Nc1ccc(-c2nc(N3CCOCC3)c3cnn(C4CCN(C(=O)c5cccc(OC)c5)CC4)c3n2)cc1 [Example 364, 1-(4-{1-[1-(3-methoxybenzoyl)piperidin-4-yl]-4-morpholin-4-yl-1H-pyrazolo[3,4-d]pyrimidin-6-yl}phenyl)-3-methylurea]
- IC50 (PI3K): 75 nM
- IC50 (prostate line LNCap; Homo sapiens, LNCaP, 72 h): 35 nM
- IC50 (breast line MDA468; Homo sapiens, 72 h): 300 nM

Compound: CCOC(=O)N1CCC(n2ncc3c(N4CCOCC4)nc(-c4ccc(NC(=O)Nc5ccncc5)cc4)nc32)CC1 [Compound 817, ethyl 4-(4-morpholin-4-yl-6-{4-[(pyridin-4-ylcarbamoyl)amino]phenyl}-1H-pyrazolo[3,4-d]pyrimidin-1-yl)piperidine-1-carboxylate]
- IC50 (PI3K): 40 nM
- IC50 (prostate line LNCap; Homo sapiens, LNCaP, 72 h): < 27 nM
- IC50 (breast line MDA468; Homo sapiens, 72 h): < 27 nM

Compound: O=C(Nc1ccc(-c2nc(N3CCOCC3)c3cnn(C4CCN(C(=O)OCCF)CC4)c3n2)cc1)Nc1cccnc1 [Compound 879, 2-fluoroethyl 4-(4-morpholin-4-yl-6-{4-[(pyridin-3-ylcarbamoyl)amino]phenyl}-1H-pyrazolo[3,4-d]pyrimidin-1-yl)piperidine-1-carboxylate]
- IC50 (PI3K): 12 nM
- IC50 (prostate line LNCap; Homo sapiens, LNCaP, 72 h): 3.9 nM
- IC50 (breast line MDA468; Homo sapiens, 72 h): 34 nM

Compound: NC(=O)c1ccc(-c2nc(N3CCOCC3)c3cnn(-c4ccccc4)c3n2)cc1 [Compound 100]
- IC50 (PI3K): 359 nM
- IC50 (prostate line LNCap; Homo sapiens, LNCaP, 72 h): 60000 nM
- IC50 (breast line MDA468; Homo sapiens, 72 h): 60000 nM

Compound: CNCC(=O)N1CCC(n2ncc3c(N4CCOCC4)nc(-c4ccc5[nH]ccc5c4)nc32)CC1 [Compound 96]
- IC50 (PI3K): 449 nM
- IC50 (prostate line LNCap; Homo sapiens, LNCaP, 72 h): 1300 nM
- IC50 (breast line MDA468; Homo sapiens, 72 h): 2800 nM

Compound: COC(=O)N1CCC(n2ncc3c(N4CCOCC4)nc(-c4ccc(O)cc4)nc32)CC1 [Compound 944, methyl 4-[6-(4-hydroxyphenyl)-4-morpholin-4-yl-1H-pyrazolo[3,4-d]pyrimidin-1-yl]piperidine-1-carboxylate]
- IC50 (PI3K): 2660 nM
- IC50 (prostate line LNCap; Homo sapiens, LNCaP, 72 h): 900 nM
- IC50 (breast line MDA468; Homo sapiens, 72 h): 2100 nM

Compound: O=C(NCCO)Nc1ccc(-c2nc(N3CCOCC3)c3cnn(C4CCN(Cc5cccnc5)CC4)c3n2)cc1 [Compound 561, 1-(2-hydroxyethyl)-3-(4-{4-morpholin-4-yl-1-[1-(pyridin-3-ylmethyl)piperidin-4-yl]-1H-pyrazolo[3,4-d]pyrimidin-6-yl}phenyl)urea]
- IC50 (PI3K): 162 nM
- IC50 (prostate line LNCap; Homo sapiens, LNCaP, 72 h): 500 nM
- IC50 (breast line MDA468; Homo sapiens, 72 h): 600 nM

Compound: NC(=O)Nc1ccc(-c2nc(N3CCOCC3)c3cnn(C4CCN(Cc5cccnc5)CC4)c3n2)cc1 [Example 313, 1-(4-{4-morpholin-4-yl-1-[1-(pyridin-3-ylmethyl)piperidin-4-yl]-1H-pyrazolo[3,4-d]pyrimidin-6-yl}phenyl)urea]
- IC50 (PI3K): 82 nM
- IC50 (prostate line LNCap; Homo sapiens, LNCaP, 72 h): 200 nM
- IC50 (breast line MDA468; Homo sapiens, 72 h): 200 nM

Compound: CCOC(=O)N1CCC(n2ncc3c(N4CCOC[C@@H]4C)nc(-c4ccc(NC(=O)Nc5ccncc5)cc4)nc32)CC1 [Compound 898, ethyl 4-(4-[(3S)-3-methylmorpholin-4-yl]-6-{4-[(pyridin-4-ylcarbamoyl)amino]phenyl}-1H-pyrazolo[3,4-d]pyrimidin-1-yl)piperidine-1-carboxylate]
- IC50 (PI3K): 18 nM
- IC50 (prostate line LNCap; Homo sapiens, LNCaP, 72 h): 40 nM
- IC50 (breast line MDA468; Homo sapiens, 72 h): 380 nM

Compound: COC(=O)N1CCC(n2ncc3c(N4CCOCC4)nc(-c4ccc(NC(=O)Nc5ccc(N6CCOCC6)nc5)cc4)nc32)CC1 [Compound 911, methyl 4-[4-morpholin-4-yl-6-(4-{[(6-morpholin-4-ylpyridin-3-yl)carbamoyl]amino}phenyl)-1H-pyrazolo[3,4-d]pyrimidin-1-yl]piperidine-1-carboxylate]
- IC50 (PI3K): 118 nM
- IC50 (prostate line LNCap; Homo sapiens, LNCaP, 72 h): 0.8 nM
- IC50 (breast line MDA468; Homo sapiens, 72 h): 10 nM

Compound: c1ccc(CN2CCC(n3ncc4c(N5CCOCC5)nc(-c5ccc(NCCN6CCOCC6)nc5)nc43)CC2)cc1 [Compound 193]
- IC50 (PI3K): 8250 nM
- IC50 (prostate line LNCap; Homo sapiens, LNCaP, 72 h): 10000 nM
- IC50 (breast line MDA468; Homo sapiens, 72 h): 12000 nM

Compound: O=C(Nc1ccc(-c2nc(N3CCOCC3)c3cnn(C4CCN(C(=O)c5cccnc5)CC4)c3n2)cc1)NC1CC1 [Example 415, 1-cyclopropyl-3-(4-{4-morpholin-4-yl-1-[1-(pyridin-3-ylcarbonyl)piperidin-4-yl]-1H-pyrazolo[3,4-d]pyrimidin-6-yl}phenyl)urea]
- IC50 (PI3K): 357 nM
- IC50 (prostate line LNCap; Homo sapiens, LNCaP, 72 h): 370 nM
- IC50 (breast line MDA468; Homo sapiens, 72 h): 700 nM

Compound: CNC(=O)Nc1ccc(-c2nc(N3CCOCC3)c3cnn(C4CCN(Cc5ccccn5)CC4)c3n2)cc1 [Compound 575, 1-methyl-3-(4-{4-morpholin-4-yl-1-[1-(pyridin-2-ylmethyl)piperidin-4-yl]-1H-pyrazolo[3,4-d]pyrimidin-6-yl}phenyl)urea]
- IC50 (PI3K): 64 nM
- IC50 (prostate line LNCap; Homo sapiens, LNCaP, 72 h): < 27 nM
- IC50 (breast line MDA468; Homo sapiens, 72 h): 500 nM

Compound: c1cc2cc(-c3nc(N4CCOCC4)c4cnn(C5CCSCC5)c4n3)ccc2[nH]1 [Compound 171]
- IC50 (PI3K): 552 nM
- IC50 (prostate line LNCap; Homo sapiens, 72 h): 730 nM
- IC50 (breast line MDA468; Homo sapiens, 72 h): 2900 nM

Compound: O=C(Nc1ccccc1)Nc1ccc(-c2nc(N3CCOCC3)c3cnn(C4CCN(CCCCO)CC4)c3n2)cc1 [Compound 748, 1-(4-{1-[1-(4-hydroxybutyl)piperidin-4-yl]-4-morpholin-4-yl-1H-pyrazolo[3,4-d]pyrimidin-6-yl}phenyl)-3-phenylurea]
- IC50 (PI3K): 53 nM
- IC50 (prostate line LNCap; Homo sapiens, LNCaP, 72 h): 80 nM
- IC50 (breast line MDA468; Homo sapiens, 72 h): 390 nM

Compound: CNC(=O)Nc1ccc(-c2nc(N3CCOCC3)c3cnn(C4CCN(CC(=O)c5ccccc5)CC4)c3n2)cc1 [Compound 577, 1-methyl-3-(4-{4-morpholin-4-yl-1-[1-(2-oxo-2-phenylethyl)piperidin-4-yl]-1H-pyrazolo[3,4-d]pyrimidin-6-yl}phenyl)urea]
- IC50 (PI3K): 22 nM
- IC50 (prostate line LNCap; Homo sapiens, LNCaP, 72 h): < 27 nM
- IC50 (breast line MDA468; Homo sapiens, 72 h): 180 nM

Compound: CCSC(=O)N1CCC(n2ncc3c(N4CCOCC4)nc(-c4ccc(NC(=O)OC)cc4)nc32)CC1 [Compound 807, S-ethyl 4-(6-{4-[(methoxycarbonyl)amino]phenyl}-4-morpholin-4-yl-1H-pyrazolo[3,4-d]pyrimidin-1-yl)piperidine-1-carbothioate]
- IC50 (PI3K): 4450 nM
- IC50 (prostate line LNCap; Homo sapiens, LNCaP, 72 h): 1400 nM
- IC50 (breast line MDA468; Homo sapiens, 72 h): 8000 nM

Compound: CC#CCOC(=O)N1CCC(n2ncc3c(N4CCOCC4)nc(-c4ccc(NC(=O)NC)cc4)nc32)CC1 [Compound 801, but-2-yn-1-yl 4-(6-{4-[(methylcarbamoyl)amino]phenyl}-4-morpholin-4-yl-1H-pyrazolo[3,4-d]pyrimidin-1-yl)piperidine-1-carboxylate]
- IC50 (PI3K): 50 nM
- IC50 (prostate line LNCap; Homo sapiens, LNCaP, 72 h): 31 nM
- IC50 (breast line MDA468; Homo sapiens, 72 h): 120 nM

Compound: O=C(Nc1ccc(-c2nc(N3CCOCC3)c3cnn(C4CCN(Cc5cccnc5)CC4)c3n2)cc1)Nc1cccs1 [Compound 648, 1-(4-{4-morpholin-4-yl-1-[1-(pyridin-3-ylmethyl)piperidin-4-yl]-1H-pyrazolo[3,4-d]pyrimidin-6-yl}phenyl)-3-(2-thienyl)urea]
- IC50 (PI3K): 8 nM
- IC50 (prostate line LNCap): < 27 nM
- IC50 (breast line MDA468): 60 nM

Compound: Nc1ccc(-c2nc(N3CCOCC3)c3cnn(C4CCN(Cc5ccccc5)CC4)c3n2)cc1F [Compound 594, 4-[1-(1-benzylpiperidin-4-yl)-4-morpholin-4-yl-1H-pyrazolo[3,4-d]pyrimidin-6-yl]-2-fluoroaniline]
- IC50 (PI3K): 1650 nM
- IC50 (prostate line LNCap; Homo sapiens, LNCaP, 72 h): 2000 nM
- IC50 (breast line MDA468; Homo sapiens, 72 h): 4000 nM

Compound: COC(=O)N1CCC(n2ncc3c(N4CCOCC4)nc(-c4ccc(NC(=O)Nc5ccc(CCN6CCNCC6)cc5)cc4)nc32)CC1 [Compound 916, methyl 4-{4-morpholin-4-yl-6-[4-({[4-(2-piperazin-1-ylethyl)phenyl]carbamoyl}amino)phenyl]-1H-pyrazolo[3,4-d]pyrimidin-1-yl}piperidine-1-carboxylate]
- IC50 (PI3K): 20 nM
- IC50 (prostate line LNCap; Homo sapiens, LNCaP, 72 h): 1.3 nM
- IC50 (breast line MDA468; Homo sapiens, 72 h): 110 nM

Compound: O=C(NCCF)Nc1ccc(-c2nc(N3CCOCC3)c3cnn(C4CCN(Cc5cccnc5)CC4)c3n2)cc1 [Compound 560, 1-(2-fluoroethyl)-3-(4-{4-morpholin-4-yl-1-[1-(pyridin-3-ylmethyl)piperidin-4-yl]-1H-pyrazolo[3,4-d]pyrimidin-6-yl}phenyl)urea]
- IC50 (PI3K): 338 nM
- IC50 (prostate line LNCap; Homo sapiens, LNCaP, 72 h): < 27 nM
- IC50 (breast line MDA468; Homo sapiens, 72 h): 27 nM
